Patent US9108930B2, “N1- and N2-carbamoyl-1,2,3-triazole serine hydrolase inhibitors and methods” (The Scripps Research Institute, priority 2011, dated 2015)

What was measured:
[1] = system: peritoneal macrophages of Pla2g4a-/- mice; assay: Metabolomics of macrophages from treated Pla2g4a-/- mice; type: in vivo, mouse; conditions: 5 mg/kg, 4 hours, i.p.
Method: Pla2g4a^−/− mice were treated with KT109 or KT195 (5 mg/kg, 4 hours, i.p.), thioglycolate-elicited macrophages were harvested, and then the macrophages were subjected to metabolomics analysis. The cellular levels of PGE2 and PGD2 were measured.
Metabolites were quantified by either selected reaction monitoring (SRM) of each metabolite using an Agilent G6410B Triple-Quad instrument or untargeted metabolomic analysis (substrate assays) using an Agilent 1100 series LC-MSD SL instrument. […] For analysis of diacylglycerols (DAGs) a Luna C5 column (50 mm×4.60 mm with 5 μm diameter particles) from Phenomenex was used. Mobile phase A was made of 95:5 v/v H2O:MeOH, and mobile phase B was composed of 60:35:5 v/v/v i-PrOH:MeOH:H2O. Ammonium hydroxide (0.1%) and formic acid (0.1%) was included to assist in ion formation in negative and positive ionization modes, respectively. For analysis of DAGs, 5 mM ammonium formate was also used in addition to 0.1% formic acid to assist in positive ionization and NH4+ adduct formation. For metabolite measurements, cells were resuspended in 1 mL of a 1% NaCl solution and added to 3 mL of a 2:1 v/v CHCl3:MeOH doped with 1 nmol of the following internal standards: d5-2-arachidonoylglycerol (2-AG), d8-arachidonic acid (AA), and d8-1-stearoyl-2-arachidonoylglycerol (SAG). The mixture was vortexed and then centrifuged (1,400×g, 3 min). The organic layer was removed, CHCl3 was added until the final volume was again 4 ml, and the extraction was repeated. The combined organic extracts were dried under a stream of N2 and resolubilized in 2:1 v/v CHCl3:MeOH (120 μl). 30 μL of resolubilized lipids were injected for positive mode (MAGs and DAGs) and negative mode (free fatty acids and eicosanoids) measurements.
The following parameters (MS) were used to measure the indicated metabolites by SRM (precursor ion, product ion, collision energy in V, polarity): C20:4 MAG or 2-AG (379, 287, 8, positive), d5-2-AG (384, 287, 5, positive), C18:0/C20:4 DAG or SAG (662, 341, 15, positive), d8-SAG (671, 671, 0, positive), C18:1/C20:4 DAG (660, 341, 15, positive), C16:0/C20:4 DAG (634, 341, 15, positive), C14:0/C20:4 DAG (606, 341, 15, positive), arachidonic acid or AA (303, 303, 0, negative), d8-AA (311, 267, 5, negative), PGE2 (351, 271, 10, negative), and PGD2 (351, 271, 10, negative). MS analysis was performed with an electrospray ionization source with the following parameters: drying gas temperature=350° C., drying gas flow rate=11 L/min, and the nebulizer pressure=35 psi. Prostaglandin SRM parameters were based on previously reported methods and transitions. Metabolites targeted by SRM were quantified by measuring the area under the peak in comparison with the internal standards. […]

[2] = target: T1, DAGLB (Mus musculus, UniProt Q91WC9); assay: In situ inhibition in Neuro2A cells, competitive ABPP with HT-01; type: cell-based; design: from tissue; host or cells: thioglycolate-elicited peritoneal macrophages of treated mice; conditions: 4 hours
T1 sequence (Q91WC9 1-669): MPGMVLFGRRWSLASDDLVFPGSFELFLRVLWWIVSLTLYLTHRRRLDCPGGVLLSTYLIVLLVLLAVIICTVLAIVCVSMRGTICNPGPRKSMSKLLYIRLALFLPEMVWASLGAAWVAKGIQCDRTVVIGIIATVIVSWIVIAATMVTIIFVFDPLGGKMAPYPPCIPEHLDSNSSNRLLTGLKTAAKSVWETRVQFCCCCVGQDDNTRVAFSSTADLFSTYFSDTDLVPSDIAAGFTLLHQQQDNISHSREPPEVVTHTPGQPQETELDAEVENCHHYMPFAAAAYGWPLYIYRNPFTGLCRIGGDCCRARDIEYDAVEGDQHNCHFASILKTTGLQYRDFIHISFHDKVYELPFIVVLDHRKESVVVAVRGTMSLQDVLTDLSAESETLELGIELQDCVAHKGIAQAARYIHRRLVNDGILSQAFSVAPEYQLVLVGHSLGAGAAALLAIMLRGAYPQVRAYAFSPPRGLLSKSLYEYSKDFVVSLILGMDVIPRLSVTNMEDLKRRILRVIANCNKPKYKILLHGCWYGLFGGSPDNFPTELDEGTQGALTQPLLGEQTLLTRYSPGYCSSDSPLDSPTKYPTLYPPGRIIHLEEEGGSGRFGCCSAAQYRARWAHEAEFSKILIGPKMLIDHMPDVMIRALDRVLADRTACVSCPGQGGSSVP
Method: For gel-based competitive ABPP studies, proteomes from cells treated in situ with inhibitor for 4 h at 37° C. at the indicated concentrations (n=3) were labeled with HT-01 (1 μM) for 30 min at 37° C. After quenching, SDS-PAGE, and in-gel visualization, the percentage of enzyme activity remaining was determined by measuring the integrated optical intensity of the bands using IMAGER® software. For LC-MS substrate assays, the percentage of enzyme activity remaining was determined by comparing the specific activity (amount of 2-AG formed per min per mg of proteome) of inhibitor with DMSO-treated samples. The IC50 values were determined from a dose-response curve generated using GraphPad PRISM® software.

With `O=C(N1CCCCC1Cc1ccccc1)n1cc(-c2ccc(-c3ccccc3)cc2)nn1` (stereo not drawn) [KT109] the PGD2 level [1] was “remained undetectable”, the “change in PGE2” value [1] was “significant decrease in PGE2” and the IC50 [2] was 14 nM.

In the case of `COc1ccc(-c2ccc(-c3cn(C(=O)N4CCCCC4c4ccccc4)nn3)cc2)cc1` (stereo not drawn) [KT195], the PGD2 level [1] is reported as “remained undetectable”, the “change in PGE2” value [1] is reported as “not observed” and the “activity against DAGLB in Neuro2A cells” value [2] is reported as “negligible activity against DAGLB”.
